Among the test systems are NCI/ADR-RES ovarian; SK-MEL-28 melanoma; NCI-H226 lung; EKVX NSCLC; LOX IMVI melanoma; SN12C renal; MDA-MB-435; U251 CNS; KM12 colon; MDA-N; T-47D breast; OVCAR-4 ovarian; UACC-62 melanoma.
What all share (test): NCI-60 cell line screen, 48 h

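How tested: cells in 96-well plates exposed to compound for 48 hours at five concentrations. TGI denotes the concentration required for complete inhibition of growth.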

For `COCc1nc2c(OC)cc(-c3nc4nc(N5CCN(C)CC5)ccc4[nH]3)c(OC)c2[nH]1`, the TGI with NCI/ADR-RES ovarian, in the assay with SK-MEL-28 melanoma, in the assay on NCI-H226 lung, with EKVX NSCLC, in the assay with LOX IMVI melanoma and with SN12C renal was above 100 µM in each case. The TGI in the assay on MDA-MB-435, in the assay on U251 CNS, in the assay with KM12 colon, in the assay on MDA-N, with T-47D breast and in the assay on OVCAR-4 ovarian was above 100 µM throughout. This compound also gave a TGI in the assay with UACC-62 melanoma above 100 µM.
For the compound `Cn1c2ccccc2c2c(-c3ccccc3)[n+]3ccccc3nc21`, the TGI with NCI/ADR-RES ovarian is above 100 µM; in the assay on SK-MEL-28 melanoma, 46.7 µM; in the assay on EKVX NSCLC it was above 100 µM; with LOX IMVI melanoma, 37.4 µM; in the assay with SN12C renal, 61.6 µM; in the assay on MDA-MB-435, 36.6 µM. Besides, the TGI in the assay on U251 CNS is 64.7 µM; in the assay with KM12 colon, 32.7 µM; in the assay on T-47D breast, above 100 µM; in the assay with OVCAR-4 ovarian, above 100 µM; in the assay with UACC-62 melanoma, 39.3 µM.
Take `COC(=O)CCC(=O)CC(=O)C1=NS(=O)(=O)c2nc(S(N)(=O)=O)c(Cl)cc2N1`: the TGI in the assay on SK-MEL-28 melanoma, with NCI-H226 lung, in the assay with EKVX NSCLC, in the assay on LOX IMVI melanoma, with SN12C renal and in the assay on U251 CNS was above 100 µM each time. Besides, the TGI in the assay on KM12 colon, with OVCAR-4 ovarian and in the assay on UACC-62 melanoma was above 100 µM throughout.
Regarding `O=c1[nH]c(Nc2ccc(F)c(Cl)c2)nc2nc[nH]c12`, the TGI with NCI/ADR-RES ovarian, with SK-MEL-28 melanoma, with NCI-H226 lung, with EKVX NSCLC, in the assay with LOX IMVI melanoma and in the assay on SN12C renal was above 100 µM throughout. The TGI in the assay with MDA-MB-435, with U251 CNS, with KM12 colon, with MDA-N, in the assay with T-47D breast and with OVCAR-4 ovarian was above 100 µM each time. For the same compound, the TGI in the assay with UACC-62 melanoma is above 100 µM.
As for `CN(C)c1ccc(/C=C2/SC(=S)NC2=O)cc1`, the TGI in the assay with NCI/ADR-RES ovarian, in the assay on SK-MEL-28 melanoma, in the assay with NCI-H226 lung, with EKVX NSCLC, in the assay on LOX IMVI melanoma and with SN12C renal was above 100 µM throughout. The TGI in the assay on MDA-MB-435, in the assay on U251 CNS, in the assay on KM12 colon, in the assay on MDA-N, in the assay on T-47D breast and with OVCAR-4 ovarian was above 100 µM throughout. Moreover, in the assay with UACC-62 melanoma, the TGI is above 100 µM.
As for `C[n+]1c2ccccc2c(CNc2ccc(S(=O)(=O)N=C(N)N)cc2)c2ccccc21`, the TGI with SK-MEL-28 melanoma amounted to 40.7 µM; in the assay with NCI-H226 lung, 10.9 µM; in the assay on EKVX NSCLC, 64.1 µM; with LOX IMVI melanoma, 20.2 µM; in the assay on SN12C renal, 27.8 µM; in the assay with KM12 colon, 27.7 µM. The results for the TGI with OVCAR-4 ovarian and in the assay with UACC-62 melanoma were above 100 µM and 42.1 µM, respectively.
For the compound `CC(C)(C)NCc1cc(Nc2ccnc3cc(Cl)ccc23)cc(-c2ccc(Cl)cc2)c1O`, the TGI was found to be 14.4 µM with NCI/ADR-RES ovarian; 3.26 µM in the assay with SK-MEL-28 melanoma; 22.3 µM in the assay with NCI-H226 lung; 14.8 µM in the assay with EKVX NSCLC; 5.64 µM with LOX IMVI melanoma; 8.9 µM with SN12C renal. Also, the TGI in the assay on MDA-MB-435 stood at 3.64 µM; in the assay on U251 CNS, 8.65 µM; with KM12 colon it was 10.4 µM; in the assay with MDA-N it was 3.19 µM; with T-47D breast, 13.3 µM; with OVCAR-4 ovarian it was 14.5 µM. In addition, in the assay on UACC-62 melanoma, the TGI stood at 3.85 µM.
Turning to `COCO[C@@H]1C[C@H]2C(O)Nc3ccccc3C(=O)N2C1` (stereo partly drawn), the TGI in the assay with NCI/ADR-RES ovarian, in the assay with SK-MEL-28 melanoma, with NCI-H226 lung, in the assay on EKVX NSCLC, with LOX IMVI melanoma and in the assay on MDA-MB-435 was above 100 µM in each case. For the same compound, the TGI with U251 CNS, in the assay with KM12 colon, in the assay with MDA-N, in the assay on T-47D breast, in the assay with OVCAR-4 ovarian and in the assay with UACC-62 melanoma was above 100 µM in each case.
`CCc1n[nH]c(=S)n1/N=C\c1ccc(-c2ccccc2Cl)o1`: the TGI is 53.7 µM with NCI/ADR-RES ovarian; 41.6 µM with NCI-H226 lung; above 100 µM with EKVX NSCLC; 66.6 µM in the assay with LOX IMVI melanoma; above 100 µM with SN12C renal; 48.4 µM with MDA-MB-435. The TGI with U251 CNS was 97.4 µM; in the assay with KM12 colon, above 100 µM; in the assay with MDA-N, 54.1 µM; in the assay with T-47D breast, 87.5 µM; in the assay on OVCAR-4 ovarian, above 100 µM; in the assay on UACC-62 melanoma it was above 100 µM.
`CC(C)=CC1C(COC(=O)c2cc3c(cc2Cl)OCO3)C1(C)C` (stereo not drawn): the TGI in the assay on NCI/ADR-RES ovarian was above 100 µM; in the assay with SK-MEL-28 melanoma, above 100 µM; in the assay on NCI-H226 lung, 91.2 µM; in the assay on EKVX NSCLC, above 100 µM; with LOX IMVI melanoma, 50 µM; in the assay with SN12C renal, above 100 µM. Also, the TGI in the assay on MDA-MB-435 is above 100 µM; with U251 CNS it was 86 µM; in the assay with KM12 colon, above 100 µM; with MDA-N it was above 100 µM; with T-47D breast it was above 100 µM; in the assay with OVCAR-4 ovarian, above 100 µM. Also, in the assay with UACC-62 melanoma, the TGI was above 100 µM.
Take `CC1=NN(c2cccc(Cl)c2)C2(SCC(=O)N2c2nc3ccccc3s2)/C1=C\c1ccc(Cl)cc1` (stereo not drawn): the TGI was above 100 µM in the assay on NCI/ADR-RES ovarian; 72.4 µM with SK-MEL-28 melanoma; 75.1 µM in the assay on NCI-H226 lung; above 100 µM with EKVX NSCLC; 45.2 µM in the assay with LOX IMVI melanoma; 43.1 µM with MDA-MB-435. Moreover, the TGI in the assay with U251 CNS is 28.2 µM; in the assay on KM12 colon it was 34.8 µM; in the assay with MDA-N, 69.8 µM; in the assay with T-47D breast, above 100 µM; in the assay on OVCAR-4 ovarian, 55.1 µM.

The values are drawn from PubChem BioAssay (NCI).
